# Results taken from ChEMBL document CHEMBL1138766, “Synthesis and biological evaluation of new acinetoferrin homologues for use as iron transport probes in mycobacteria” (2004).
# System: Mycobacterium avium
# Assay: Growth index for Mycobacterium avium sub species paratuberculosis was measured relative to mycobactin J
# Type: functional
row,Structure (SMILES),Growth Index
1,CCCCC/C=C/C(=O)N(O)CCCCCCNC(=O)CC1(O)CC(=O)N(CCCCCCN(O)C(=O)/C=C/CCCCC)C1=O (stereo unspecified),1.01
2,CCCCC/C=C/C(=O)N(O)CCCCCCNC(=O)CC(O)(CC(=O)NCCCCCCN(O)C(=O)/C=C/CCCCC)C(=O)O,0.95
3,CCCCC/C=C/C(=O)N(O)CCCCCNC(=O)CC(O)(CC(=O)NCCCCCN(O)C(=O)/C=C/CCCCC)C(=O)O,0.96
4,CCCCC/C=C/C(=O)N(O)CCCCCNC(=O)CC1(O)CC(=O)N(CCCCCN(O)C(=O)/C=C/CCCCC)C1=O (stereo unspecified),1.17
5,CCCCCCCCCCCCC/C=C/C(=O)N(O)CCCC[C@H](NC(=O)[C@@H]1CCC(c2ccccc2O)=N1)C(=O)OC(C(C)C)C(C)C(=O)N[C@H]1CCCCN(O)C1=O (stereo partly specified),1
6,CC(=O)N(O)CCCCCNC(=O)CCC(=O)N(O)CCCCCNC(=O)CCC(=O)N(O)CCCCCN [DEFEROXAMINE],1.09
